Assay results taken from patent publication US20260048047A1, “SMALL-MOLECULE ACTIVATORS OF MYCOBACTERIUM TUBERCULOSIS ADENYLYL CYCLASE” (priority 2022, published 2026).
Where two headings read alike, the source gives them in different places.

Test system: M. tuberculosis
Assay: Extracellular activity against M. tuberculosis in cholesterol media (Alamar Blue reduction assay)
Format: cell-based, Mycobacterium tuberculosis
Details: 7H12-Cholesterol media, 10 days, read-out: Cholesterol broth: alamar blue--EC50
[1] = Mycobacterium tuberculosis, 240 h

SMILES: Cc1nonc1CC(=O)N1CC2CC(C1)C2c1nc(C2CCC(F)(F)CC2)no1 (centres unmarked) [Compound 213, 1-(6-(3-(4,4-difluorocyclohexyl)-1,2,4-oxadiazol-5-yl)-3-azabicyclo[3.1.1]heptan-3-yl)-2-(4-methyl-1,2,5-oxadiazol-3-yl)ethan-1-one]
- EC50 [1]: 0.488 µM

SMILES: Cc1nonc1CC(=O)N1CCC(n2cc(C(=O)N3CCOCC3)nn2)CC1 [Compound 60, 2-(4-methyl-1,2,5-oxadiazol-3-yl)-1-(4-(4-(morpholine-4-carbonyl)-1H-1,2,3-triazol-1-yl)piperidin-1-yl)ethan-1-one]
- EC50 [1]: > 10 µM

SMILES: Cc1noc(CC(=O)N2CC3CC2CC3c2nc(C3CCCCC3)no2)n1 (centres unmarked) [Compound 189, 1-(5-(3-cyclohexyl-1,2,4-oxadiazol-5-yl)-2-azabicyclo[2.2.1]heptan-2-yl)-2-(3-methyl-1,2,4-oxadiazol-5-yl)ethan-1-one]
- EC50 [1]: > 10 µM

SMILES: O=C(Cc1cc(=O)[nH]c(=O)[nH]1)N1CCC(c2nc(-c3ccc(F)cc3)no2)CC1 [Compound 1, 6-(2-(4-(3-(4-fluorophenyl)-1,2,4-oxadiazol-5-yl)piperidin-1-yl)-2-oxoethyl)pyrimidine-2,4(1H,3H)-dione]
- EC50 [1]: 0.784 µM

SMILES: Cc1nonc1CC(=O)N1CC2CC1CC2c1nc(C2CCCCC2)no1 (centres unmarked) [Compound 194, 1-(5-(3-cyclohexyl-1,2,4-oxadiazol-5-yl)-2-azabicyclo[2.2.1]heptan-2-yl)-2-(4-methyl-1,2,5-oxadiazol-3-yl)ethan-1-one]
- EC50 [1]: 0.79 µM

SMILES: O=C(Cc1cnccn1)N1CCC(n2nnc(-c3ccc(F)cc3)n2)CC1 [Compound 2, 1-(4-(5-(4-fluorophenyl)-2H-tetrazol-2-yl)piperidin-1-yl)-2-(pyrazin-2-yl)ethan-1-one]
- EC50: > 10 µM

SMILES: Cc1nccnc1CC(=O)N1CCC(c2nc(-c3ccc(Cl)c(Cl)c3)no2)CC1 [Compound 14, 1-(4-(3-(3,4-dichlorophenyl)-1,2,4-oxadiazol-5-yl)piperidin-1-yl)-2-(3-methylpyrazin-2-yl)ethan-1-one]
- EC50 [1]: 8.32 µM

SMILES: Cn1ncnc1CC(=O)N1CCC(c2nc(-c3ccc(Cl)c(Cl)c3)no2)CC1 [Compound 164, 1-(4-(3-(3,4-dichlorophenyl)-1,2,4-oxadiazol-5-yl)piperidin-1-yl)-2-(1-methyl-1H-1,2,4-triazol-5-yl)ethan-1-one]
- EC50 [1]: 0.0647 µM

SMILES: Cn1ncnc1CC(=O)N1C[C@H]2C[C@@H](C1)[C@@H]2c1nc(-c2ccc(Cl)c(Cl)c2)no1 [Compound 217, 1-((1R,5S,6r)-6-(3-(3,4-dichlorophenyl)-1,2,4-oxadiazol-5-yl)-3-azabicyclo[3.1.1]heptan-3-yl)-2-(1-methyl-1H-1,2,4-triazol-5-yl)ethan-1-one]
- EC50 [1]: 0.1 µM

SMILES: Cc1nonc1CC(=O)N1CCC2(CC1)CC2c1nc(-c2ccc(F)cc2)no1 (centres unmarked) [Compound 237, 1-(1-(3-(4-fluorophenyl)-1,2,4-oxadiazol-5-yl)-6-azaspiro[2.5]octan-6-yl)-2-(4-methyl-1,2,5-oxadiazol-3-yl)ethan-1-one]
- EC50 [1]: > 10 µM

SMILES: Cn1ncnc1CC(=O)N1CCC(c2nc(-c3ccc(F)cc3)no2)CC1 [Compound 186, 1-(4-(3-(4-fluorophenyl)-1,2,4-oxadiazol-5-yl)piperidin-1-yl)-2-(1-methyl-1H-1,2,4-triazol-5-yl)ethan-1-one]
- EC50 [1]: 0.48 µM

SMILES: Cn1cnc(CC(=O)N2CCC(c3nc(-c4ccc(F)cc4)no3)CC2)n1 [Compound 154, 1-(4-(3-(4-fluorophenyl)-1,2,4-oxadiazol-5-yl)piperidin-1-yl)-2-(1-methyl-1H-1,2,4-triazol-3-yl)ethan-1-one]
- EC50 [1]: > 10 µM

SMILES: Cc1nonc1CC(=O)N1CCC(c2nc(C3CCCC3)no2)CC1 [Compound 70, 1-(4-(3-cyclopentyl-1,2,4-oxadiazol-5-yl)piperidin-1-yl)-2-(4-methyl-1,2,5-oxadiazol-3-yl)ethan-1-one]
- EC50 [1]: 3.68 µM

SMILES: Cc1nonc1CC(=O)N1CCC2(CCC2n2nnc(-c3ccc(F)cc3)n2)CC1 (centres unmarked) [Compound 258, 1-(1-(5-(4-fluorophenyl)-2H-tetrazol-2-yl)-7-azaspiro[3.5]nonan-7-yl)-2-(4-methyl-1,2,5-oxadiazol-3-yl)ethan-1-one]
- EC50 [1]: > 25 µM

SMILES: Cn1ncnc1CC(=O)N1CCC(c2nc(-c3ccc(Cl)c(OC(F)(F)F)c3)no2)CC1 [Compound 169, 1-(4-(3-(4-chloro-3-(trifluoromethoxy)phenyl)-1,2,4-oxadiazol-5-yl)piperidin-1-yl)-2-(1-methyl-1H-1,2,4-triazol-5-yl)ethan-1-one]
- EC50 [1]: 0.33 µM

SMILES: Cc1nonc1CC(=O)N1CCC(C)(c2nc(-c3ccc(F)cc3)no2)CC1 [Compound 138, 1-(4-(3-(4-fluorophenyl)-1,2,4-oxadiazol-5-yl)-4-methylpiperidin-1-yl)-2-(4-methyl-1,2,5-oxadiazol-3-yl)ethan-1-one]
- EC50 [1]: 1.47 µM

SMILES: Cc1noc(CC(=O)N2CC3CC(C2)C3n2nnc(-c3ccc(F)cc3)n2)n1 (centres unmarked) [Compound 242, 1-(6-(5-(4-fluorophenyl)-2H-tetrazol-2-yl)-3-azabicyclo[3.1.1]heptan-3-yl)-2-(3-methyl-1,2,4-oxadiazol-5-yl)ethan-1-one]
- EC50 [1]: > 25 µM

SMILES: Cc1noc(CC(=O)N2CCC(c3nc(-c4ccc(F)cc4)no3)CC2)n1 [Compound 49, 1-(4-(3-(4-fluorophenyl)-1,2,4-oxadiazol-5-yl)piperidin-1-yl)-2-(3-methyl-1,2,4-oxadiazol-5-yl)ethan-1-one]
- EC50 [1]: 1.44 µM

SMILES: Cc1nonc1CC(=O)N1CCC(n2nnc(C3CC3)n2)CC1 [Compound 62, 1-(4-(5-cyclopropyl-2H-tetrazol-2-yl)piperidin-1-yl)-2-(4-methyl-1,2,5-oxadiazol-3-yl)ethan-1-one]
- EC50 [1]: ≥ 10 µM

SMILES: Cc1noc(CC(=O)N2CCC(c3nc(-c4ccc(Cl)cc4)no3)CC2)n1 [Compound 34, 1-(4-(3-(4-chlorophenyl)-1,2,4-oxadiazol-5-yl)piperidin-1-yl)-2-(3-methyl-1,2,4-oxadiazol-5-yl)ethan-1-one]
- EC50 [1]: 0.399 µM

SMILES: Cc1nonc1CC(=O)N1CCC(c2nc(-c3ccc(F)cc3)no2)CC1 [Compound 130, 1-(4-(3-(4-fluorophenyl)-1,2,4-oxadiazol-5-yl)piperidin-1-yl)-2-(4-methyl-1,2,5-oxadiazol-3-yl)ethan-1-one]
- EC50 [1]: 0.275 µM

SMILES: Cn1ncnc1CC(=O)N1CCC(n2nnc(-c3ccc(Cl)c(Cl)c3)n2)CC1 [Compound 165, 1-(4-(5-(3,4-dichlorophenyl)-2H-tetrazol-2-yl)piperidin-1-yl)-2-(1-methyl-1H-1,2,4-triazol-5-yl)ethan-1-one]
- EC50 [1]: 0.1 µM

SMILES: Cc1nonc1CC(=O)N1CCC(c2nc(C3CCCC(F)(F)C3)no2)CC1 (centres unmarked) [Compound 112, 1-(4-(3-(3,3-difluorocyclohexyl)-1,2,4-oxadiazol-5-yl)piperidin-1-yl)-2-(4-methyl-1,2,5-oxadiazol-3-yl)ethan-1-one]
- EC50 [1]: 2.67 µM

SMILES: Cc1nonc1CC(=O)N1CCC(c2nc(C(C)C)no2)CC1 [Compound 83, 1-(4-(3-isopropyl-1,2,4-oxadiazol-5-yl)piperidin-1-yl)-2-(4-methyl-1,2,5-oxadiazol-3-yl)ethan-1-one]
- EC50 [1]: > 10 µM

SMILES: Cn1ncnc1CC(=O)N1CCC(c2noc(C34CC(F)(C3)C4)n2)CC1 [Compound 173, 1-(4-(5-(3-fluorobicyclo[1.1.1]pentan-1-yl)-1,2,4-oxadiazol-3-yl)piperidin-1-yl)-2-(1-methyl-1H-1,2,4-triazol-5-yl)ethan-1-one]
- EC50 [1]: > 10 µM

SMILES: Cn1nnnc1CC(=O)N1CCC(c2nc(-c3ccc(F)cc3)no2)CC1 [Compound 188, 1-(4-(3-(4-fluorophenyl)-1,2,4-oxadiazol-5-yl)piperidin-1-yl)-2-(1-methyl-1H-tetrazol-5-yl)ethan-1-one]
- EC50 [1]: 6.33 µM

SMILES: Cc1nonc1CC(=O)N1CCCC(n2nnc(-c3ccc(F)cc3)n2)C1 (centres unmarked) [Compound 248, 1-(3-(5-(4-fluorophenyl)-2H-tetrazol-2-yl)piperidin-1-yl)-2-(4-methyl-1,2,5-oxadiazol-3-yl)ethan-1-one]
- EC50 [1]: > 10 µM

SMILES: Cc1noc(CC(=O)N2CCC3(CCC3c3nc(-c4ccc(F)cc4)no3)CC2)n1 (centres unmarked) [Compound 240, 1-(1-(3-(4-fluorophenyl)-1,2,4-oxadiazol-5-yl)-7-azaspiro[3.5]nonan-7-yl)-2-(3-methyl-1,2,4-oxadiazol-5-yl)ethan-1-one]
- EC50 [1]: > 10 µM

SMILES: Cc1noc(CC(=O)N2CCC(c3nc(-c4ccc(Cl)c(F)c4)no3)CC2)n1 [Compound 44, 1-(4-(3-(4-chloro-3-fluorophenyl)-1,2,4-oxadiazol-5-yl)piperidin-1-yl)-2-(3-methyl-1,2,4-oxadiazol-5-yl)ethan-1-one]
- EC50 [1]: 0.229 µM

SMILES: Cc1nonc1CC(=O)N1CCN(c2ncn(-c3ccc(F)cc3)n2)CC1 [Compound 250, 1-(4-(1-(4-fluorophenyl)-1H-1,2,4-triazol-3-yl)piperazin-1-yl)-2-(4-methyl-1,2,5-oxadiazol-3-yl)ethan-1-one]
- EC50 [1]: > 10 µM

SMILES: Cn1ncnc1CC(=O)N1CCC(c2nc(-c3ccc(S(F)(F)(F)(F)F)cc3)no2)CC1 [Compound 175, 2-(1-methyl-1H-1,2,4-triazol-5-yl)-1-(4-(3-(4-(pentafluoro-16-sulfaneyl)phenyl)-1,2,4-oxadiazol-5-yl)piperidin-1-yl)ethan-1-one]
- EC50 [1]: 1.63 µM

SMILES: Cc1nonc1CC(=O)N1CCC(c2noc(C3CCC4(CC3)CC4)n2)CC1 [Compound 69, 2-(4-methyl-1,2,5-oxadiazol-3-yl)-1-(4-(5-(spiro[2.5]octan-6-yl)-1,2,4-oxadiazol-3-yl)piperidin-1-yl)ethan-1-one]
- EC50 [1]: > 25 µM

SMILES: Cc1nocc1CC(=O)N1CC2CC(C1)C2c1nc(-c2ccc(F)cc2)no1 (centres unmarked) [Compound 210, 1-(6-(3-(4-fluorophenyl)-1,2,4-oxadiazol-5-yl)-3-azabicyclo[3.1.1]heptan-3-yl)-2-(3-methylisoxazol-4-yl)ethan-1-one]
- EC50 [1]: ≥ 25 µM

SMILES: O=c1cc(CN2CCC(c3nc(-c4ccc(Cl)c(Cl)c4)no3)CC2)[nH]c(=O)[nH]1 [Compound 3, 6-((4-(3-(3,4-dichlorophenyl)-1,2,4-oxadiazol-5-yl)piperidin-1-yl)methyl)pyrimidine-2,4(1H,3H)-dione]
- EC50 [1]: 0.179 µM

SMILES: Cc1noc(CC(=O)N2CCC(n3nnc(C4CCCCC4)n3)CC2)n1 [Compound 24, 1-(4-(5-cyclohexyl-2H-tetrazol-2-yl)piperidin-1-yl)-2-(3-methyl-1,2,4-oxadiazol-5-yl)ethan-1-one]
- EC50 [1]: > 25 µM
